As a reminder, the solubility is the dissolved amount per volume that the medium holds.

The nature of data set [1]: Determination of solubility in water at room temperature by HPLC. The settings on record: saturated solubility not determined; for solubility: thermodynamic from solid, read-out: Minimum solubility in water at room temperature. Format: physicochemical. The procedure: 1 mg of compound 1 was mixed with 1 mL of water, stirred at room temperature, and completely dissolved, and the supernatant was taken as a test sample solution.
50 mg of the hydrochloride or tromethamine salt of the compound was mixed with 150 μl of water, stirred at room temperature, and completely dissolved, and the supernatant was taken as a test sample solution.
In this test, the saturated solubility of the sample is not determined, but an appropriate amount of the sample is selected to determine the solubility of the sample. […] However, the solubility of pomalidomide in water is about 0.01 mg/ml, which is much lower than the solubility of the compound of the present invention or the salt thereof.

Data set [2] is described as follows: Determination of stability under different environmental conditions. The format is physicochemical. The procedure: An appropriate amount of the sample was independently placed under different environmental conditions, and the percentage of the sample at day 0, 5, 10 or 30 was determined to evaluate the stability of the sample.
The conditions of data set [3]: cited from earlier work.

Each structure is given as a SMILES string. ≈ marks a conversion by molar mass, not a printed value. Where a name gives a salt, the structure may show the parent alone. Read-outs that look alike come from different tables or passages of the source.

Turning to `Nc1cccc2c1C(=O)N(C1CCC(=O)N(COC(=O)[C@@H](N)Cc3ccccc3)C1=O)C2=O` (some centres unmarked) [Hydrochloride salt of compound 7], the solubility in data set [1] is above 300 mg/mL.

Turning to `CC[C@H](C)[C@H](N)C(=O)OCN1C(=O)CCC(N2C(=O)c3cccc(N)c3C2=O)C1=O` (some centres unmarked) [Hydrochloride salt of compound 5], the solubility in data set [1] is above 300 mg/mL.

As for `C[C@H](N)C(=O)OCN1C(=O)CCC(N2C(=O)c3cccc(N)c3C2=O)C1=O` (some centres unmarked) [Hydrochloride salt of compound 3], the solubility in data set [1] is above 300 mg/mL.

Regarding `CC(C)[C@H](N)C(=O)OCN1C(=O)CCC(N2C(=O)c3cccc(N)c3C2=O)C1=O` (some centres unmarked) [Compound 1], in data set [1], the “Minimum solubility in water at room temperature” value is 1 mg/mL.

On to `CC(C)[C@H](N)C(=O)OCN1C(=O)CCC(N2C(=O)c3cccc(N)c3C2=O)C1=O` (some centres unmarked) [Hydrochloride salt of compound 1], for which the “Minimum solubility in water at room temperature” value in data set [1] was above 300 mg/mL. For the same molecule, the “percentage of the sample” value in data set [2] (Day 0) was found to be 97.1%; in data set [2] (Day 10/40° C./60% RH/Dark), 96.9%; in data set [2] (Day 10/60° C./75% RH/Dark) it was 96.4%; in data set [2] (Day 10/Light) it was 96.7%; in data set [2] (Day 10/RT/75% RH/Dark), 96.8%; in data set [2] (Day 10/RT/92.5% RH/Dark) it was 95.5%. In addition, the “percentage of the sample” value in data set [2] (Day 30/40° C./60% RH/Dark) is 95.1%; in data set [2] (Day 30/60° C./75% RH/Dark), 94.7%; in data set [2] (Day 30/Light), 95.0%; in data set [2] (Day 30/RT/75% RH/Dark), 96.1%; in data set [2] (Day 30/RT/92.5% RH/Dark), 93.3%.

With `NCC(=O)OCN1C(=O)CCC(N2C(=O)c3cccc(N)c3C2=O)C1=O` (centres unmarked) [Hydrochloride salt of compound 2], the solubility in data set [1] is above 300 mg/mL. Moreover, the “percentage of the sample” value in data set [2] (Day 0) worked out at 96.1%; in data set [2] (Day 10/40° C./60% RH/Dark) it was 43.5%; in data set [2] (Day 10/60° C./75% RH/Dark), 13.3%; in data set [2] (Day 10/RT/92.5% RH/Dark), 93.3%.

`Nc1cccc2c1C(=O)N(C1CCC(=O)NC1=O)C2=O` (centres unmarked) [Pomalidomide]: the solubility was 0.0189 mg/mL (≈ 69.2 µM) in data set [3] (0.1 mol/L hydrochloric acid), 0.0187 mg/mL (≈ 68.4 µM) in data set [3] (acetate buffer (pH 4.5)), 0.017 mg/mL (≈ 62.2 µM) in data set [3] (phosphate buffer (pH 6.8)) and 0.0178 mg/mL (≈ 65.1 µM) in data set [3] (purified water). For the same molecule, in data set [3] (water), the “solubility of pomalidomide in water” value is recorded as “about 0.01 mg/ml”.

`CC(C)C[C@H](N)C(=O)OCN1C(=O)CCC(N2C(=O)c3cccc(N)c3C2=O)C1=O` (some centres unmarked) [Hydrochloride salt of compound 4]: the solubility in data set [1] was above 300 mg/mL.

For the molecule `Nc1cccc2c1C(=O)N(C1CCC(=O)N(COC(=O)[C@@H]3CCCN3)C1=O)C2=O` (some centres unmarked) [Hydrochloride salt of compound 6], the solubility in data set [1] is above 300 mg/mL.

As to `Nc1cccc2c1C(=O)N(C1CCC(=O)N(COP(=O)(O)O)C1=O)C2=O` (centres unmarked) [Ditromethamine salt of compound 11], the solubility in data set [1] was above 300 mg/mL. Moreover, the “percentage of the sample” value in data set [2] (Day 0) is 99.9%; in data set [2] (Day 5/40° C./60% RH/Dark), 92.8%; in data set [2] (Day 5/60° C./75% RH/Dark), 15.6%; in data set [2] (Day 5/Light), 99.5%; in data set [2] (Day 5/RT/75% RH/Dark), 79.8%; in data set [2] (Day 5/RT/92.5% RH/Dark), 78.4%.

The record behind these values is US20200199097A1, “POMALIDOMIDE DERIVATIVE AND PREPARATION METHOD THEREFOR” (NANJING NORATECH PARMACEUTICALS CO., LTD, priority 2017, published 2020).
